Experimental data as given in PMC9831606, “Computational design of peptides to target NaV1.7 channel with high potency and selectivity for the treatment of pain” (eLife, 2022).

Assays:
[1] = tested on: rats; conditions: cited from earlier work
[2] = tested on: male and female rats; assay: von Frey mechanical withdrawal threshold after oxaliplatin CIPN induction; type: in vivo, rat; conditions: after single i.p. oxaliplatin 6 mg/kg, 3 days; baseline 72.9±2.7 grams
Experimental: Chronic pain models: Chemotherapy induced neuropathy was induced in rats with oxaliplatin after i.t catheter placement recovery with a single i.p. dose of oxaliplatin 6 mg/kg. The animals were allowed to recover for 3 days and then were assessed in the open field assay to ensure motor function and with a von Frey assay to assess allodynia to verify their pain state. The von Frey assay with an electronic aesthesiometer quantified the average baseline for a group of male and female rats to be 72.9±2.7 grams for the mechanical withdrawal threshold after cannulation but before CIPN model induction which fell to 27.9±2.7 grams indicating allodynia. On the day of treatment rats were assessed for baseline measures and then treated and assayed for […] responses.

SMILES	motor effect after intrathecal administration ([1]; 2.4 µg i.t., ref Schmalhofer et al., 2008)	maximum tolerated dose in rats ([1]; in 10 µL, intrathecal, ref Flinspach et al., 2017)	mechanical withdrawal threshold (von Frey, electronic aesthesiometer) [2]
CSCC[C@@H]1NC(=O)CNC(=O)[C@H](CCC(=O)O)NC(=O)[C@@H]2CSSC[C@H](NC(=O)[C@@H](N)Cc3ccc(O)cc3)C(=O)N[C@@H](CCC(N)=O)C(=O)N[C@@H](CCCCN)C(=O)N[C@@H](Cc3c[nH]c4ccccc34)C(=O)N[C@@H](CCSC)C(=O)N[C@@H](Cc3c[nH]c4ccccc34)C(=O)N[C@@H]([C@@H](C)O)C(=O)N[C@H]3CSSC[C@H](NC(=O)[C@H](C(C)C)NC1=O)C(=O)N[C@@H](CCCNC(=N)N)C(=O)N[C@@H](CC(C)C)C(=O)N[C@@H](Cc1c[nH]c4ccccc14)C(=O)N[C@H](C(=O)N[C@@H](CCCCN)C(=O)N[C@@H](CCCCN)C(=O)N[C@@H](CCCCN)C(=O)N[C@@H](CC(C)C)C(=O)N[C@@H](Cc1c[nH]c4ccccc14)C(=O)O)CSSC[C@H](NC(=O)[C@H](CCCCN)NC(=O)[C@H](CCCNC(=N)N)NC(=O)[C@H](CCC(=O)O)NC(=O)[C@H](CO)NC(=O)[C@H](CC(=O)O)NC3=O)C(=O)N2 [WT ProTx-II]	laming effect	2 µg	
O=C1[O][Pt]2([NH][C@@H]3CCCC[C@H]3[NH]2)[O]C1=O [oxaliplatin]			27.9±2.7 grams
